Measured values published in PubChem BioAssay AID1259407 (Chemical Carcinogenesis Research Information System (CCRIS), 2018).
Calls of active or inactive are those of the source. How the calls were made is not given here.

System: CCRIS mutagenicity, Ames/micronucleus/aberration tests
Assay: CCRIS mutagenicity studies
[1] = Test System: AMES SALMONELLA TYPHIMURIUM, Strain/Indicator: TA98, Metabolic Activation: NONE, Method: STANDARD PLATE
[2] = Test System: AMES SALMONELLA TYPHIMURIUM, Strain/Indicator: TA100, Metabolic Activation: NONE, Method: STANDARD PLATE
[3] = Test System: AMES SALMONELLA TYPHIMURIUM, Strain/Indicator: TA1535, Metabolic Activation: NONE, Method: STANDARD PLATE
[4] = Test System: AMES SALMONELLA TYPHIMURIUM, Strain/Indicator: TA1537, Metabolic Activation: NONE, Method: STANDARD PLATE

SMILES: CC(C)[C@]12CC(=O)[C@H](C)[C@H]1C2
- mutagenic call (Test System: AMES SALMONELLA TYPHIMURIUM, Strain/Indicator: TA98, Metabolic Activation: HAMSTER LIVER S-9, AROCLOR 1254, Method: STANDARD PLATE): inactive; negative
- mutagenic call [1]: inactive; negative
- mutagenic call (Test System: AMES SALMONELLA TYPHIMURIUM, Strain/Indicator: TA98, Metabolic Activation: RAT LIVER S-9, AROCLOR 1254, Method: STANDARD PLATE): inactive; negative
- mutagenic call (Test System: AMES SALMONELLA TYPHIMURIUM, Strain/Indicator: TA100, Metabolic Activation: HAMSTER LIVER S-9, AROCLOR 1254, Method: STANDARD PLATE): inactive; negative
- mutagenic call [2]: inactive; negative
- mutagenic call (Test System: AMES SALMONELLA TYPHIMURIUM, Strain/Indicator: TA100, Metabolic Activation: RAT LIVER S-9, AROCLOR 1254, Method: STANDARD PLATE): inactive; negative
- mutagenic call (Test System: AMES SALMONELLA TYPHIMURIUM, Strain/Indicator: TA102, Metabolic Activation: HAMSTER LIVER S-9, AROCLOR 1254, Method: STANDARD PLATE): inactive; negative
- mutagenic call (Test System: AMES SALMONELLA TYPHIMURIUM, Strain/Indicator: TA102, Metabolic Activation: NONE, Method: STANDARD PLATE): inactive; negative
- mutagenic call (Test System: AMES SALMONELLA TYPHIMURIUM, Strain/Indicator: TA102, Metabolic Activation: RAT LIVER S-9, AROCLOR 1254, Method: STANDARD PLATE): inactive; negative
- mutagenic call (Test System: AMES SALMONELLA TYPHIMURIUM, Strain/Indicator: TA1535, Metabolic Activation: HAMSTER LIVER S-9, AROCLOR 1254, Method: STANDARD PLATE): inactive; negative
- mutagenic call [3]: inactive; negative
- mutagenic call (Test System: AMES SALMONELLA TYPHIMURIUM, Strain/Indicator: TA1535, Metabolic Activation: RAT LIVER S-9, AROCLOR 1254, Method: STANDARD PLATE): inactive; negative
- mutagenic call (Test System: AMES SALMONELLA TYPHIMURIUM, Strain/Indicator: TA1537, Metabolic Activation: HAMSTER LIVER S-9, AROCLOR 1254, Method: STANDARD PLATE): inactive; negative
- mutagenic call [4]: inactive; negative
- mutagenic call (Test System: AMES SALMONELLA TYPHIMURIUM, Strain/Indicator: TA1537, Metabolic Activation: RAT LIVER S-9, AROCLOR 1254, Method: STANDARD PLATE): inactive; negative
- mutagenic call (Test System: Mouse lymphoma, Strain/Indicator: L5178Y (tk+/tk-), Metabolic Activation: None, Method: Suspension/plate): inactive; negative
- mutagenic call (Test System: Mouse lymphoma, Strain/Indicator: L5178Y (tk+/tk-), Metabolic Activation: Rat, Liver, S-9, Aroclor 1254, Method: Suspension/plate): active; equivocal (previous evaluation positive)

SMILES: Cc1ccc(N=NN(C)C)cc1
- mutagenic call (Test System: AMES SALMONELLA TYPHIMURIUM, Strain/Indicator: TA92, Metabolic Activation: MOUSE, LIVER, S-9, POLYCHLORINATED BIPHENYLS, Method: PREINCUBATION): inactive; negative
- mutagenic call (Test System: AMES SALMONELLA TYPHIMURIUM, Strain/Indicator: TA92, Metabolic Activation: MOUSE, LIVER, S-9, POLYCHLORINATED BIPHENYLS, Method: STANDARD PLATE): inactive; negative
- mutagenic call (Test System: AMES SALMONELLA TYPHIMURIUM, Strain/Indicator: TA92, Metabolic Activation: NONE, Method: STANDARD PLATE): inactive; negative
- mutagenic call (Test System: AMES SALMONELLA TYPHIMURIUM, Strain/Indicator: TA97, Metabolic Activation: MOUSE, LIVER, S-9, POLYCHLORINATED BIPHENYLS, Method: PREINCUBATION): inactive; negative
- mutagenic call (Test System: AMES SALMONELLA TYPHIMURIUM, Strain/Indicator: TA97, Metabolic Activation: MOUSE, LIVER, S-9, POLYCHLORINATED BIPHENYLS, Method: STANDARD PLATE): inactive; negative
- mutagenic call (Test System: AMES SALMONELLA TYPHIMURIUM, Strain/Indicator: TA97, Metabolic Activation: NONE, Method: STANDARD PLATE): active; positive
- mutagenic call (Test System: AMES SALMONELLA TYPHIMURIUM, Strain/Indicator: TA98, Metabolic Activation: MOUSE, LIVER, S-9, POLYCHLORINATED BIPHENYLS, Method: PREINCUBATION): inactive; negative
- mutagenic call (Test System: AMES SALMONELLA TYPHIMURIUM, Strain/Indicator: TA98, Metabolic Activation: MOUSE, LIVER, S-9, POLYCHLORINATED BIPHENYLS, Method: STANDARD PLATE): active; positive
- mutagenic call [1]: active; positive
- mutagenic call (Test System: AMES SALMONELLA TYPHIMURIUM, Strain/Indicator: TA100, Metabolic Activation: MOUSE, LIVER, S-9, POLYCHLORINATED BIPHENYLS, Method: PREINCUBATION): inactive; negative
- mutagenic call (Test System: AMES SALMONELLA TYPHIMURIUM, Strain/Indicator: TA100, Metabolic Activation: MOUSE, LIVER, S-9, POLYCHLORINATED BIPHENYLS, Method: STANDARD PLATE): inactive; negative
- mutagenic call [2]: inactive; negative
- mutagenic call (Test System: AMES SALMONELLA TYPHIMURIUM, Strain/Indicator: TA1535, Metabolic Activation: MOUSE, LIVER, S-9, POLYCHLORINATED BIPHENYLS, Method: PREINCUBATION): inactive; negative
- mutagenic call (Test System: AMES SALMONELLA TYPHIMURIUM, Strain/Indicator: TA1535, Metabolic Activation: MOUSE, LIVER, S-9, POLYCHLORINATED BIPHENYLS, Method: STANDARD PLATE): inactive; negative
- mutagenic call [3]: inactive; negative
- mutagenic call (Test System: AMES SALMONELLA TYPHIMURIUM, Strain/Indicator: TA1537, Metabolic Activation: MOUSE, LIVER, S-9, POLYCHLORINATED BIPHENYLS, Method: PREINCUBATION): active; positive
- mutagenic call (Test System: AMES SALMONELLA TYPHIMURIUM, Strain/Indicator: TA1537, Metabolic Activation: MOUSE, LIVER, S-9, POLYCHLORINATED BIPHENYLS, Method: STANDARD PLATE): active; positive
- mutagenic call [4]: active; positive
- mutagenic call (Test System: AMES SALMONELLA TYPHIMURIUM, Strain/Indicator: TA1538, Metabolic Activation: MOUSE, LIVER, S-9, POLYCHLORINATED BIPHENYLS, Method: PREINCUBATION): active; positive
- mutagenic call (Test System: AMES SALMONELLA TYPHIMURIUM, Strain/Indicator: TA1538, Metabolic Activation: MOUSE, LIVER, S-9, POLYCHLORINATED BIPHENYLS, Method: STANDARD PLATE): active; positive
- mutagenic call (Test System: AMES SALMONELLA TYPHIMURIUM, Strain/Indicator: TA1538, Metabolic Activation: NONE, Method: STANDARD PLATE): active; positive

SMILES: CCCCCCC(O)C/C=C\CCCCCCCC(=O)OCC(COC(=O)CCCCCCC/C=C\CC(O)CCCCCC)OC(=O)CCCCCCC/C=C\CC(O)CCCCCC (stereo unspecified)
- mutagenic call (Test System: AMES SALMONELLA TYPHIMURIUM, Strain/Indicator: TA97, Metabolic Activation: HAMSTER, LIVER, S-9, AROCLOR 1254 (10 OR 30%), Method: PREINCUBATION): inactive; negative
- mutagenic call (Test System: AMES SALMONELLA TYPHIMURIUM, Strain/Indicator: TA97, Metabolic Activation: NONE, Method: PREINCUBATION): inactive; negative
- mutagenic call (Test System: AMES SALMONELLA TYPHIMURIUM, Strain/Indicator: TA97, Metabolic Activation: RAT, LIVER, S-9, AROCLOR 1254 (10 OR 30%), Method: PREINCUBATION): inactive; negative
- mutagenic call (Test System: AMES SALMONELLA TYPHIMURIUM, Strain/Indicator: TA98, Metabolic Activation: HAMSTER, LIVER, S-9, AROCLOR 1254 (10 OR 30%), Method: PREINCUBATION): inactive; negative
- mutagenic call (Test System: AMES SALMONELLA TYPHIMURIUM, Strain/Indicator: TA98, Metabolic Activation: NONE, Method: PREINCUBATION): inactive; negative
- mutagenic call (Test System: AMES SALMONELLA TYPHIMURIUM, Strain/Indicator: TA98, Metabolic Activation: RAT, LIVER, S-9, AROCLOR 1254 (10 OR 30%), Method: PREINCUBATION): inactive; negative
- mutagenic call (Test System: AMES SALMONELLA TYPHIMURIUM, Strain/Indicator: TA100, Metabolic Activation: HAMSTER, LIVER, S-9, AROCLOR 1254 (10 OR 30%), Method: PREINCUBATION): inactive; negative
- mutagenic call (Test System: AMES SALMONELLA TYPHIMURIUM, Strain/Indicator: TA100, Metabolic Activation: NONE, Method: PREINCUBATION): inactive; negative
- mutagenic call (Test System: AMES SALMONELLA TYPHIMURIUM, Strain/Indicator: TA100, Metabolic Activation: RAT, LIVER, S-9, AROCLOR 1254 (10 OR 30%), Method: PREINCUBATION): inactive; negative
- mutagenic call (Test System: AMES SALMONELLA TYPHIMURIUM, Strain/Indicator: TA1535, Metabolic Activation: HAMSTER, LIVER, S-9, AROCLOR 1254 (10 OR 30%), Method: PREINCUBATION): inactive; negative
- mutagenic call (Test System: AMES SALMONELLA TYPHIMURIUM, Strain/Indicator: TA1535, Metabolic Activation: NONE, Method: PREINCUBATION): inactive; negative
- mutagenic call (Test System: AMES SALMONELLA TYPHIMURIUM, Strain/Indicator: TA1535, Metabolic Activation: RAT, LIVER, S-9, AROCLOR 1254 (10 OR 30%), Method: PREINCUBATION): inactive; negative

SMILES: Cn1c([N+](=O)[O-])nc2ccccc21
- mutagenic call [1]: active; positive
